US4888357A, “Antiarthritic β-cycloalkyl-β-oxopropionitriles” (Bristol-Myers Company, priority 1988, dated 1989)
Where two headings read alike, the source gives them in different places.

Tests used:
[1] = test system: adjuvant-induced arthritis; details: J. Med. Chem., 1979, 22:1385-9; cited from earlier work
[2] = test system: adjuvant-induced polyarthritis (hind paw volume); assay: Modified developing adjuvant arthritis in rats (adjuvant-induced polyarthritis, AIP); assay type: in vivo, male Lewis rats; details: for inhibition in vivo at 100 mg/kg: 100 mg/kg once daily p.o. d. 1-8
Experimental: A. Modified Developing Adjuvant Arthritis in Rats
This test is based on the procedure originally described by Pearson (Proc. Soc. Biol. Med., 1956, pp 91-5). Each experimental group used six male Lewis rats weighing approx. 250 gm. Arthritis was produced by a single intradermal injection of Mycobacterium butyricum (0.6 mg in 0.1 ml mineral oil) into the base of the tail. Test compounds were administered orally, once daily, starting on the day of inoculation (day 1) through day 8. The initial dosage was reduced during this period when side effects were observed. The paw volume (average of two hind paws) was measured by the merccury displacement method at least twice weekly during the course of the experiment (40 to 42 days). The efficacy of a compound was expressed as the percent reduction of hind paw volume of treated vs. untreated rats using the following equation: [formula]
^a once daily, p.o., from d. 1-8 (unless otherwise specified).
^b % Inhibition of paw edema: 0 = <25; + = 25- <40; ++ = 40-<60; +++

[3] = test system: delayed-type hypersensitivity (DTH) response; assay: Delayed type hypersensitivity (DTH) response to Mycobacterium butyricum challenge in rats; assay type: in vivo, male Lewis rats
Experimental: C. Delayed Type Hypersensitivity (DTH)
Male Lewis rats were immunized on Day 1. Mycobacterium butyricum in mineral oil (6 mg/ml) was injected into the base of the tail at 0.1 ml per rat. A negative control group receiving an equal amount of mineral oil was included. Drug therapy was administered orally from day one to day eight. Delayed type hypersensitivity was tested on day 9. Purified protein derivative (Tuberculin PPD, Statens Seruminstitute, Tuberculin Department, DK-2300 Copenhagen S, Denmark) was dissolved in phosphate buffered saline at 2.5 mg/ml. Twenty μl (50 μg) of the PPD solution was injected intradermally into the right ear of the rat, and the conralateral ear received 20 μl of the phosphate buffered saline vehicle. Forty-eight hours after injection the thickness of both ears was measured to the nearest 0.01 mm using a hand held caliper. The difference between the thickness of right and left ears was defined as the delta value for each rat. Group means and standard errors were compared using a Dunnett's 2-tail test.

[4] = Rattus norvegicus, po, 480 h, read d. 20-22, read-out: AIP Inhib. score (% Inhibition of paw edema) d. 20-22
[5] = Rattus norvegicus, po, 960 h, read d. 40-42, read-out: AIP Inhib. score (% Inhibition of paw edema) d. 40-42

SMILES | inhibition in vivo at 100 mg/kg [2, 4] | inhibition in vivo at 100 mg/kg [2, 5] | also measured
N#CCC(=O)c1ccccc1 [Benzoylacetonitrile (I), Benzoylacetonitrile] | – | – | inhibition of adjuvant-induced arthritis in rats [1]: effective inhibitors of adjuvant-induced arthritis in rats
CNC(=O)C(C#N)C(=O)C1CC1 (stereo not drawn) [Example 1, β-Cyclopropyl-β-oxo-α-methylcarbamoylpropionitrile] | 80 to 100% | 80 to 100% | % Reduction-DTH ([3]; 10 mg/kg/d × 8 d. p.o.): 20%; % Reduction-DTH ([3]; 30 mg/kg/d × 8 d. p.o.): 41%; % Reduction-DTH ([3]; 60 mg/kg/d × 8 d. p.o.): 56%; immunomodulating activity (ability to reduce delayed hypersensitivity) ([3]; arthritic rats): exhibits immunomodulating activity
CN(C)C(=O)C(C#N)C(=O)C1CC1 (stereo not drawn) [Example 3, β-Cyclopropyl-α-dimethylcarbamoyl-β-oxopropionitrile] | 60 to 80% | 60 to 80% | –
C#CCNC(=O)C(C#N)C(=O)C1CC1 (stereo not drawn) [Example 4, β-Cyclopropyl-β-oxo-α-propargylcarbamoylpropionitrile] | – | – | AIP Inhib. score (% Inhibition of paw edema) d. 40-42 ([2]; 50 mg/kg once daily p.o. d. 1-8, read d. 40-42): ++ +; inhibition in vivo at 50 mg/kg ([2]; Rattus norvegicus, po, 480 h, 50 mg/kg once daily p.o. d. 1-8, read d. 20-22, read-out: AIP Inhib. score (% Inhibition of paw edema) d. 20-22): 60 to 80%
N#CC(C(=O)NC1CCC1)C(=O)C1CC1 (stereo not drawn) [Example 6, α-Cyclobutylcarbamoyl-β-cyclopropyl-β-oxopropionitrile] | 25 to 40% | 25 to 40% | –
CNC(=O)C(C#N)C(=O)C1CCC1 (stereo not drawn) [Example 7, β-Cyclobutyl-β-oxo-α-methylcarbamoylpropionitrile] | < 25% | 25 to 40% | –
